Measurements as given in patent US20110105855A1, “EARLY DETECTION OF COGNITION IMPAIRMENT IN ELDERLY POPULATION” (TRUSTEES OF TUFTS COLLEGE, priority 2009, published 2011).

Experiments:
cognitive function = details: healthy older adults, intervention trial (Johnson et al. 2008); cited from earlier work
[1] = design: species or system rhesus monkeys (Macaca mulatta); details: rhesus monkey, in vivo, 2.2 mg/kg/day
Description: Study 1. Lutein and Zeaxanthin Supplementation Study. Eighteen rhesus monkeys (Macaca mulatta) were reared on one of two semipurified diets, both of which contained adequate levels of all known nutrients, but no detectable xanthophylls as analyzed by our laboratory. The animals also received limited amounts of very low xanthophyll foods such as wheat or rice cereals, white rice, sweetened drinks and gelatin, pineapple and banana.
Beginning at 7-16 years of age, 6 of these monkeys were supplemented with pure lutein and 6 with pure zeaxanthin, at 3.9 μmol/kg/day (2.2 mg/kg/day). The lutein and zeaxanthin supplements were purified or synthesized by DSM Nutritional Products, Ltd. The supplements were inserted into marshmallows, sweetened gelatin or small pieces of fruit. Beadlets and individual supplement doses were stored at 4° C. in the dark. […]
Biopsy punches were used to dissect the central retina, containing the macula, into a 4 mm diameter circle centered on the fovea. Retinal tissue was analyzed for carotenoids as described previously (1). Cerebellum and occipital cortex samples were collected and analyzed for carotenoids as described by Park et al. (2). […]
Relationships between retina and brain tissue were evaluated using Pearson's correlation coefficients. For those relationships with sample size >6, p values were calculated.

[2] = elderly population of healthy 65 year olds; cited from earlier work

Structure (SMILES): CC1=C[C@H](O)CC(C)(C)[C@H]1/C=C/C(C)=C/C=C/C(C)=C/C=C/C=C(C)/C=C/C=C(C)/C=C/C1=C(C)C[C@@H](O)CC1(C)C [Lutein]
- Effect of supplementation on cognitive function (cognitive function): improve cognitive function
- Carotenoids found in brain tissue [1]: the only carotenoid measured in brain tissue
- Average plasma level [2]: 0.27 ± 0.15 µM

Structure (SMILES): CC1=C(/C=C/C(C)=C/C=C/C(C)=C/C=C/C=C(C)/C=C/C=C(C)/C=C/C2=C(C)C[C@@H](O)CC2(C)C)C(C)(C)C[C@H](O)C1 [Zeaxanthin]
- Carotenoids found in brain tissue [1]: the only carotenoid measured in brain tissue
- Average plasma level [2]: 0.032 ± 0.021 µM
